The test system of one assay is swine coronary arteries. The assay is described as follows: In vitro vasorelaxation in isolated swine coronary arteries (PGF2α-contracted rings). It counts as cell-based. As to conditions: Sus scrofa; for EC50: Table II; for IC50: read-out: Vasorelaxation (IC50). The method, then:
Swine coronary arteries were obtained from a local slaughter house, dissected carefully and cleaned of fat, blood and adhering tissue. Rings approximately 2-3 mm wide were cut and transferred to water-jacketed tissue baths (10 ml) filled with warm (37° C.), oxygenated (O2 /CO2 :95%/5%) Krebs-Henseleit buffer and mounted on L-shaped hooks between stainless steel rods and a force transducer. […] Rings were equilibrated for 90 minutes with frequent buffer changes at a resting tension of 5 g In order to assure optimal tension development, arterial rings were primed twice with 36 mM KCl and once with 10 μm. PGF2α, before being exposed to 3 μM PGF2α. […] Tension achieved with 3 μM PGF2α was considered .equivalent to 100%; all other values were expressed as a percentage of that maximum.

The next assay deals with rat adipocytes. The assay is described as follows: In vitro lipolysis assay in rat adipocytes (glycerol production). It counts as cell-based. As to conditions: for EC50: read-out: EC50 (50% inhibition of glycerol production); for inhibition at 0.1 µM: versus positive control. As to the method: Adipose tissue is removed from anesthetized rats and rinsed twice in incubation medium (2.09 g sodium bicarbonate and 0.04 g EDTA, disodium salt, in 1 L Krebs buffer). Each rat (300-350 g) yields approximately 4 ml of adipose tissue. The adipose tissue (35 ml) is cut into small pieces with scissors and washed with incubation medium (50 ml). The mixture is poured into the barrel of a 50 ml syringe to which is attached a short piece of clamped tubing instead of a needle. The aqueous phase is allowed to drain. A second wash with incubation medium is passed through the syringe. The tissue is added to 50 ml of collagenase solution (collagenase(90 mg), bovine serum albumin (BSA) (500 mg), and 0.1 M calcium chloride solution (1 ml), in incubation medium (50 ml)) in a 1 L bottle. The mixture is shaken in an environmental at 37° C. for about 60 minutes under an atmosphere of 95% oxygen/5% carbon dioxide to effect digestion of the tissue. The dispersed cells are poured through 2 layers of cheese cloth into a 100 ml plastic beaker. The undigested clumps in the cloth are rinsed once with incubation medium (20 ml). The cells in the beaker are centrifuged in 2 plastic tubes for 30 seconds at room temperature at 300 rpm. The aqueous phase is aspirated from beneath the loosely packed layer of floating fat cells and discarded. The adipocytes are gently poured into a 250 ml plastic beaker containing 100 ml of rinse solution (1 g BSA per 100 ml incubation medium). After gentle stirring the centrifugation step is repeated. Another wash with rinse solution follows. The cells are pooled and their volume is estimated with a graduated cylinder. The adipocytes are diluted in twice their volume of assay buffer (incubation medium (120 ml), BSA (1.2 g), pyruvic acid (13 mg)).
The assay is performed in 20 ml plastic scintillation vials and the total assay volume is 4.2 ml. Assay buffer (2.5 ml), diluted adipocytes (1.5 ml), and a solution of the compound to be tested (12.3 μL) adenosine agonist (12.3 μl; varying concentration) is incubated in the environmental shaker for 15 minutes, then the reaction is started with norepinephrine solution (41.2 μL) (10 nM, in a carrier solution containing water (100 ml), BSA (4 mg), and 0.1 M EDTA (20 I. LL))and adenosine deaminase (1 μg/ml, 41.2 μl). After sixty minutes in the shaker the reaction is terminated by putting the vials on ice. […] The hard lipid layer is removed by aspiration and the aqueous layer is assayed for glycerol (400 μl of sample). The positive control is done in the absence of any adenosine agonist, substituting water in place of the solution to be tested.

Assay [1] has as its system normotensive anesthetized rat. The assay is described as follows: In vivo mean arterial pressure and heart rate in normotensive anesthetized rat. As to conditions: iv. As to the method:
Normotensive rats were anesthetized with sodium pentobarbital (50 mg/kg, j.p.) and placed on a heated surgical table. Cannulas were inserted into the femoral artery and […] to allow the measurement of arterial pressure and to facilitate the intravenous administration of test compounds. The animals was allowed to equilibrate for 10 minutes after surgery. Mean arterial pressure was continuously measured and recorded and heart rate was monitored using the arterial pressure pulse to trigger a cardiotachometer. After baseline parameters were established and recorded, increasing doses (1, 3, 10, 30, 100, 300 and 1000 μg/kg) of the compound of the invention to be tested were administered intravenously. Maximal changes in the cardiovascular parameters were observed after each dose of the adenosine agonist. Only one compound was administered per rat.

Setting [2] is: 50% reduction in tension, 3 μM PGF2α, read-out: Vasorelaxation in Swine Coronary Artery/IC50.
[3] abbreviates: Rattus norvegicus, Adipocyte, unit nM in cell.
Where [4] appears, read: Rattus norvegicus, Adipocyte, read-out: % Inhibition of glycerol production.
Setting [5] is: dose lowering heart rate by 25%, read-out: Blood Press/Heart Rate Anesthetized Rat HR/ED25.
Where [6] appears, read: dose lowering mean arterial pressure by 25%, read-out: Blood Press/Heart Rate Anesthetized Rat MAP/ED25.
Where [7] appears, read: read-out: Vasorelaxation in Swine Coronary Artery/IC50 (μM), 50% reduction in tension, 3 μM PGF2α.

Like-named read-outs stand apart in the source and are kept apart here.

`CCNC(=O)[C@H]1C[C@@H](n2cnc3c(N[C@H](C)Cc4ccc(Cl)s4)ncnc32)[C@H](OC(=O)NC)[C@@H]1OC(=O)NC` [Example 45, (2S)-2α,3α-bis-methylcarbamoyloxy-4β-[N6-[2-(5-chloro-2-thienyl)-(1R)-1-methylethyl]amino-9-adenyl]cyclopentane-1β-N-ethylcarboxamide]: the EC50 in the assay with swine coronary arteries (setting [2]) is 4.1 µM.
The inhibition is the relative decrease from the control value, in per cent. Consider `CO[C@@H]1[C@H](O)[C@@H](CO)O[C@H]1n1cnc2c(N[C@H](C)Cc3sccc3Cl)ncnc21` [Example 47, N^6-[2-(3-chloro-2-thienyl)-(1R)-1-methylethyl]-2'-O-methyladenosine], for which the EC50 in the assay on swine coronary arteries (setting [2]) was found to be 5.7 µM; with rat adipocytes (setting [3]), 0.63 nM. In the assay with rat adipocytes (setting [4]), the inhibition at 0.1 µM amounted to 94%.
On to `CCNC(=O)[C@H]1C[C@@H](n2cnc3c(NCCc4cccs4)ccnc32)[C@H](O)[C@@H]1O` (relative stereo) [Example 30, (±)-N6-[1-(thiopheny-2-yl)ethan-2-yl]-N'-1-deazaaristeromycin-5'-N-ethyl carboxamide], for which the ED25 is above 0.01 mg/kg in assay [1] (setting [5]) and 0.006 mg/kg in assay [1] (setting [6]). Moreover, the EC50 in the assay on swine coronary arteries (setting [7]) was found to be 12.1 µM.
`CCNC(=O)[C@H]1C[C@@H](n2cnc3c(NC(Cc4cccs4)C(C)C)ccnc32)[C@H](O)[C@@H]1O` (stereo partly drawn) [Example 38, [1S-[1α,2β,3β,4α]]-4-[7-[[2-(2-thienyl)-1-isopropylethyl]amino]-3 H-imidazo[4,5-b]pyridin-3-yl]-N-ethyl-2,3-dihydroxycyclopentanecarboxamide]: the EC50 in the assay with swine coronary arteries (setting [2]) amounted to 0.47 µM.
Turning to `CCNC(=O)[C@H]1C[C@@H](n2cnc3c(N[C@H](CC)Cc4ccc(Cl)s4)ccnc32)[C@H](O)[C@@H]1O` [Example 41, [1S-[1α,2β,3β,4α]]-4-[7-[[2-(5-chloro-2-thienyl)-1-ethylethyl]amino]-3 H-imidazo[4,5-b]pyridin-3-yl]-N-ethyl-2,3-dihydroxycyclopentane-carboxamide], the inhibition at 0.1 µM in the assay on rat adipocytes (setting [4]) came to 88%.
In the case of `CCNC(=O)[C@H]1C[C@@H](n2cnc3c(N[C@H](C)Cc4ccc(Cl)s4)[n+]([O-])cnc32)[C@H](O)[C@@H]1O` [Example 35, (2S)-2α,3α-dihydroxy-4β-[N6-[2-(5-chloro-2-thienyl)-(1R)-1-methylethyl]amino-9-adenyl]cyclopentane-1β-N-ethylcarboxamide-N^1-oxide], the EC50 in the assay with swine coronary arteries (setting [2]) was determined as 3.3 µM.
With `CCNC(=O)[C@H]1C[C@@H](n2cnc3c(N[C@H](C)Cc4ccc(Cl)s4)ncnc32)[C@@H]2OC(=S)O[C@@H]21` [Example 46, (2S)-2α,3α-dihydroxy-4β-[N6-[2-(5-chloro-2-thienyl)-(1R)-1-methylethyl]amino-9-adenyl]cyclopentane-1β-N-ethylcarboxamide-2,3-thiocarbonate], the EC50 was determined as 3.52 µM with swine coronary arteries (setting [7]) and 4 nM in the assay with rat adipocytes (setting [3]).
With `CCNC(=O)[C@H]1C[C@@H](n2cnc3c(NCCc4nccs4)ncnc32)[C@H](O)[C@@H]1O` (relative stereo) [Example 25, (±)-N^6-[2-(2"-thiazolyl)ethyl]-carbocyclic adenosine-5'-N-ethyl carboxamide], the EC50 with swine coronary arteries (setting [2]) was 0.64 µM.
In the case of `CCNC(=O)[C@H]1O[C@@H](n2cnc3c(N)ncnc32)[C@H](O)[C@@H]1O` [NECA, N-ethylcarboxamidoadenosine, reference compound], in the assay with rat adipocytes (Rattus norvegicus, Adipocyte), the EC50 amounted to 2.5 nM.
The IC50 is the concentration needed to halve the response being measured. Regarding `C[C@H](Cc1ccccc1)Nc1ncnc2c1ncn2[C@@H]1O[C@H](CO)[C@@H](O)[C@H]1O` [R-PIA, R-phenylisopropyladenosine, reference compound], in the assay with swine coronary arteries, the half-maximal inhibitory concentration (IC50) worked out at 760 nM. The EC50 with rat adipocytes (Rattus norvegicus, Adipocyte) was determined as 1 nM.
As for `CO[C@@H]1[C@H](O)[C@@H](CO)O[C@H]1n1cnc2c(N[C@@H]3CC=CC[C@H]3c3cccs3)ncnc21` (relative stereo) [Example 49, N^6-[trans-5-(2-thienyl)cyclohex-1-en-4-yl]-2'-O-methyladenosine], the EC50 amounted to 9.81 µM with swine coronary arteries (setting [7]) and 18.6 nM in the assay on rat adipocytes (Rattus norvegicus, Adipocyte). In the assay on rat adipocytes (setting [4]), the inhibition at 0.1 µM was 85%.
Regarding `CCNC(=O)[C@H]1O[C@@H](n2cnc3c(NC4CC=CCC4c4cccs4)ncnc32)[C@H](O)[C@@H]1O` (single isomer, unassigned) [Example 5, N6-[trans-2-(thiophen-2-yl)cyclohex-4-en-l-yl]adenosine-5'-N-ethylcarboxamide], in the assay with swine coronary arteries (setting [7]), the EC50 is 0.068 µM.
As for `CCNC(=O)[C@H]1O[C@@H](n2cnc3c(N)nc(NCCc4ccc(CCC(=O)O)cc4)nc32)[C@H](O)[C@@H]1O` [CGS21680, reference compound], the IC50 in the assay with swine coronary arteries was found to be 80 nM. In addition, the inhibition at 1 µM in the assay on rat adipocytes (setting [4]) was 0%. Besides, the antilipolytic activity entry in the assay with rat adipocytes (in words) is recorded as “do not exhibit antilipolytic activity”.
In the case of `CCNC(=O)[C@H]1C[C@@H](n2cnc3c(NC(CC)Cc4sccc4Cl)ccnc32)[C@H](O)[C@@H]1O` (stereo partly drawn) [Example 37, [1S-[1α,2β,3β,4α]]-4-[7-[[2-(3-chloro-2-thienyl)-1-ethylethyl]amino]-3 H-imidazo[4,5-b]pyridin-3-yl]-N-ethyl-2,3-dihydroxycyclopentane-carboxamide], in the assay on swine coronary arteries (setting [2]), the EC50 is 0.45 µM.
Consider `CCNC(=O)[C@H]1C[C@@H](n2cnc3c(N[C@H](C)Cc4ccc(Cl)s4)ncnc32)[C@H](OC(=O)OC)[C@@H]1OC(=O)OC` [Example 42, (2S)-2α,3α-bis-methoxycarbonyloxy-4β-[N6-[2-(5-chloro-2-thienyl)-(1R)-1-methylethyl]amino-9-adenyl]cyclopentane-1β-N-ethylcarboxamide], for which the EC50 in the assay on swine coronary arteries (setting [7]) came out at 2.44 µM.
As to `CO[C@@H]1[C@H](O)[C@@H](CO)O[C@H]1n1cnc2c(N[C@H](C)Cc3ccc(Cl)s3)ncnc21` [Example 48, N^6-[2-(5-chloro-2-thienyl)-(1R)-1-methylethyl]-2'-O-methyladenosine], in the assay on rat adipocytes (Rattus norvegicus, Adipocyte), the EC50 was determined as 1.86 nM. Moreover, the inhibition at 0.1 µM in the assay on rat adipocytes (setting [4]) amounted to 88%.
As to `OC[C@H]1O[C@@H](n2cnc3c(N[C@@H]4CC=CC[C@H]4c4ccsc4)ncnc32)[C@H](O)[C@@H]1O` (relative stereo) [Example 8, N^6-[trans-2-(thiophen-3-yl)-cyclohex-4-en-1-yl]adenosine], the ED25 was found to be 0.023 mg/kg in assay [1] (setting [5]) and 0.01 mg/kg in assay [1] (setting [6]).
As for `CCNC(=O)[C@H]1C[C@@H](n2cnc3c(N[C@H](C)Cc4ccc(Cl)s4)ncnc32)[C@@H]2OC(OCC)O[C@@H]21` (stereo partly drawn) [Example 43, (2S)-2α,3α-dihydroxy-4β-[N6-[2-(5-chloro-2-thienyl)-(1R)-1-methylethyl]amino-9-adenyl]cyclopentane-1β-N-ethylcarboxamide ethoxymethylene acetal], in the assay with swine coronary arteries (setting [7]), the EC50 worked out at 7.83 µM.
For `CCNC(=O)[C@H]1C[C@@H](n2cnc3c(N[C@H](C)Cc4cccs4)ccnc32)[C@H](O)[C@@H]1O` [Example 40, [1S-[1α,2β,3β,4α(S*)]]-4-[7-[[2-(2-thienyl)-1-methylethyl]amino]-3 H-imidazo[4,5-b]pyridin-3-yl]-N-ethyl-2,3-dihydroxycyclopentane-carboxamide], the EC50 with swine coronary arteries (setting [2]) is 0.283 µM.

(Values after patent US5652366A, “DI (1R)-(-)camphosulfonic acid) salt, preparation thereof and use thereof” (Rhone-Poulenc Rorer Pharmaceuticals Inc., priority 1995, dated 1997).)
